Results as given in patent publication US9618524B2, “Method, composition, isolation and identification of a plaque particle and related biomarker” (Plaxgen Inc., priority 2012, dated 2017).

Tests used:
Assay in all cases: Mass spectroscopy proteomics, semi-quantitative binding affinity of serum proteins (plaqueproteome, Table 2)
Details in all cases: higher number = stronger affinity
[1] = tested on: Tau plaque particles; set-up: species or system human
Outline: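 Synthetic Tau-74 and Tau-275 peptides (1 mg/mL PBS, 37° C, 2 h) aggregated; 30 μg aggregates incubated with 50% serum/plasma 1 h at 37° C, stained with Thioflavin S, and plaque particles sorted by flow cytometry. Bound proteins trypsin-digested and identified by MS/MS against human UniProt.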

[2] = tested on: High Density cholesterol (Chl Large) plaque particles; set-up: species or system human
Outline: (§1)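 Atherosclerotic plasma/serum (50% in PBS) + 30 μg cholesterol aggregates, 1 hr 37° C; FACS gates split low- vs high-density particles. Acetone precipitation, urea/ProteaseMAX, acrylamide alkylation, overnight Trypsin/Lys C at 37° C; Sequest search, Scaffold/Protein Prophet validation.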

[3] = tested on: Low density cholesterol (Chl small) plaque particles; set-up: species or system human
Outline: as §1

[4] = biological target: T1, alpha-synuclein plaque particles (Homo sapiens, UniProt P37840)
T1 construct: 140 amino acids polypeptide
Outline: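 AD-subject plasma or serum (800 μL of 50%) mixed with 30 μg preformed alpha-synuclein aggregates for 1 h at 37 °C; Thioflavin S-positive particles isolated by flow sorting. After reduction, acrylamide alkylation and overnight tryptic digestion, serum proteins identified by MS/MS with Sequest and Scaffold.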

[5] = biological target: T2, Abeta-42 plaque particles (Homo sapiens, UniProt P05067)
T2 construct: Abeta 1-42
Outline: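 AD patient serum or plasma (50% in PBS) was incubated with Abeta-42 aggregates (30 μg) for 1 h at 37 °C, then stained with Thioflavin S for 30 min. Labeled particles were FACS-sorted, trypsin/Lys-C digested overnight and analyzed by MS/MS. Sequest searched human UniProt; Scaffold/Protein Prophet validated the identifications.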

## Cluster of Ig lambda-2 chain C regions
[1]
  Semi-quantitative analysis of proteins binding to different plaque particles: Tau: 11
[2]
  Semi-quantitative analysis of proteins binding to different plaque particles: Chl Large: 5
[3]
  Semi-quantitative analysis of proteins binding to different plaque particles: Chl small: 9
[4]
  Semi-quantitative analysis of proteins binding to different plaque particles: Synuclein: 8
[5]
  Semi-quantitative analysis of proteins binding to different plaque particles: Abeta-42: 9

## Isoform Short of Heterogeneous nuclear ribonucleoprotein
[1]
  Semi-quantitative analysis of proteins binding to different plaque particles: Tau: 0
[2]
  Semi-quantitative analysis of proteins binding to different plaque particles: Chl Large: 0
[3]
  Semi-quantitative analysis of proteins binding to different plaque particles: Chl small: 0
[4]
  Semi-quantitative analysis of proteins binding to different plaque particles: Synuclein: 0
[5]
  Semi-quantitative analysis of proteins binding to different plaque particles: Abeta-42: 4

## Tropomyosin alpha-3 chain
[1]
  Semi-quantitative analysis of proteins binding to different plaque particles: Tau: 0
[2]
  Semi-quantitative analysis of proteins binding to different plaque particles: Chl Large: 0
[3]
  Semi-quantitative analysis of proteins binding to different plaque particles: Chl small: 0
[4]
  Semi-quantitative analysis of proteins binding to different plaque particles: Synuclein: 0
[5]
  Semi-quantitative analysis of proteins binding to different plaque particles: Abeta-42: 5

## Complement C4-A
[1]
  Semi-quantitative analysis of proteins binding to different plaque particles: Tau: 50
[2]
  Semi-quantitative analysis of proteins binding to different plaque particles: Chl Large: 44
[3]
  Semi-quantitative analysis of proteins binding to different plaque particles: Chl small: 36
[4]
  Semi-quantitative analysis of proteins binding to different plaque particles: Synuclein: 37
[5]
  Semi-quantitative analysis of proteins binding to different plaque particles: Abeta-42: 28

## Ig gamma-1 chain C region
[1]
  Semi-quantitative analysis of proteins binding to different plaque particles: Tau: 27
[2]
  Semi-quantitative analysis of proteins binding to different plaque particles: Chl Large: 41
[3]
  Semi-quantitative analysis of proteins binding to different plaque particles: Chl small: 51
[4]
  Semi-quantitative analysis of proteins binding to different plaque particles: Synuclein: 44
[5]
  Semi-quantitative analysis of proteins binding to different plaque particles: Abeta-42: 12

## Cluster of Hemoglobin subunit beta
[1]
  Semi-quantitative analysis of proteins binding to different plaque particles: Tau: 3
[2]
  Semi-quantitative analysis of proteins binding to different plaque particles: Chl Large: 3
[3]
  Semi-quantitative analysis of proteins binding to different plaque particles: Chl small: 2
[4]
  Semi-quantitative analysis of proteins binding to different plaque particles: Synuclein: 5
[5]
  Semi-quantitative analysis of proteins binding to different plaque particles: Abeta-42: 4

## Isoform 3 of Fibronectin
[1]
  Semi-quantitative analysis of proteins binding to different plaque particles: Tau: 23
[2]
  Semi-quantitative analysis of proteins binding to different plaque particles: Chl Large: 25
[3]
  Semi-quantitative analysis of proteins binding to different plaque particles: Chl small: 19
[4]
  Semi-quantitative analysis of proteins binding to different plaque particles: Synuclein: 16
[5]
  Semi-quantitative analysis of proteins binding to different plaque particles: Abeta-42: 9

## Ig heavy chain V-III region WA
[1]
  Semi-quantitative analysis of proteins binding to different plaque particles: Tau: 1
[2]
  Semi-quantitative analysis of proteins binding to different plaque particles: Chl Large: 1
[3]
  Semi-quantitative analysis of proteins binding to different plaque particles: Chl small: 2
[4]
  Semi-quantitative analysis of proteins binding to different plaque particles: Synuclein: 0
[5]
  Semi-quantitative analysis of proteins binding to different plaque particles: Abeta-42: 4

## Isoform MBP-1 of Alpha-enolase
[1]
  Semi-quantitative analysis of proteins binding to different plaque particles: Tau: 0
[2]
  Semi-quantitative analysis of proteins binding to different plaque particles: Chl Large: 0
[3]
  Semi-quantitative analysis of proteins binding to different plaque particles: Chl small: 0
[4]
  Semi-quantitative analysis of proteins binding to different plaque particles: Synuclein: 0
[5]
  Semi-quantitative analysis of proteins binding to different plaque particles: Abeta-42: 7

## Apolipoprotein B-100
[1]
  Semi-quantitative analysis of proteins binding to different plaque particles: Tau: 65
[2]
  Semi-quantitative analysis of proteins binding to different plaque particles: Chl Large: 47
[3]
  Semi-quantitative analysis of proteins binding to different plaque particles: Chl small: 51
[4]
  Semi-quantitative analysis of proteins binding to different plaque particles: Synuclein: 42
[5]
  Semi-quantitative analysis of proteins binding to different plaque particles: Abeta-42: 62

## Lumican
[1]
  Semi-quantitative analysis of proteins binding to different plaque particles: Tau: 0
[2]
  Semi-quantitative analysis of proteins binding to different plaque particles: Chl Large: 4
[3]
  Semi-quantitative analysis of proteins binding to different plaque particles: Chl small: 3
[4]
  Semi-quantitative analysis of proteins binding to different plaque particles: Synuclein: 0
[5]
  Semi-quantitative analysis of proteins binding to different plaque particles: Abeta-42: 0

## Alpha-1-acid glycoprotein 1
[1]
  Semi-quantitative analysis of proteins binding to different plaque particles: Tau: 11
[2]
  Semi-quantitative analysis of proteins binding to different plaque particles: Chl Large: 9
[3]
  Semi-quantitative analysis of proteins binding to different plaque particles: Chl small: 8
[4]
  Semi-quantitative analysis of proteins binding to different plaque particles: Synuclein: 7
[5]
  Semi-quantitative analysis of proteins binding to different plaque particles: Abeta-42: 12

## Isoform 2 of Protein SET
[1]
  Semi-quantitative analysis of proteins binding to different plaque particles: Tau: 0
[2]
  Semi-quantitative analysis of proteins binding to different plaque particles: Chl Large: 0
[3]
  Semi-quantitative analysis of proteins binding to different plaque particles: Chl small: 0
[4]
  Semi-quantitative analysis of proteins binding to different plaque particles: Synuclein: 0
[5]
  Semi-quantitative analysis of proteins binding to different plaque particles: Abeta-42: 4

## Nucleoside diphosphate kinase A
[1]
  Semi-quantitative analysis of proteins binding to different plaque particles: Tau: 0
[2]
  Semi-quantitative analysis of proteins binding to different plaque particles: Chl Large: 0
[3]
  Semi-quantitative analysis of proteins binding to different plaque particles: Chl small: 0
[4]
  Semi-quantitative analysis of proteins binding to different plaque particles: Synuclein: 4
[5]
  Semi-quantitative analysis of proteins binding to different plaque particles: Abeta-42: 5

## Apolipoprotein C-I (TPDVSSALDKLKEFGNTLEDKARELISRIKQSELSAKMREWFSETFQKVKEKLKIDS)
[1]
  Semi-quantitative analysis of proteins binding to different plaque particles: Tau: 1
[2]
  Semi-quantitative analysis of proteins binding to different plaque particles: Chl Large: 1
[3]
  Semi-quantitative analysis of proteins binding to different plaque particles: Chl small: 1
[4]
  Semi-quantitative analysis of proteins binding to different plaque particles: Synuclein: 0
[5]
  Semi-quantitative analysis of proteins binding to different plaque particles: Abeta-42: 2

## Ig lambda-6 chain C region
[1]
  Semi-quantitative analysis of proteins binding to different plaque particles: Tau: 5
[2]
  Semi-quantitative analysis of proteins binding to different plaque particles: Chl Large: 3
[3]
  Semi-quantitative analysis of proteins binding to different plaque particles: Chl small: 3
[4]
  Semi-quantitative analysis of proteins binding to different plaque particles: Synuclein: 6
[5]
  Semi-quantitative analysis of proteins binding to different plaque particles: Abeta-42: 5

## Ig heavy chain V-III region BRO
[1]
  Semi-quantitative analysis of proteins binding to different plaque particles: Tau: 5
[2]
  Semi-quantitative analysis of proteins binding to different plaque particles: Chl Large: 5
[3]
  Semi-quantitative analysis of proteins binding to different plaque particles: Chl small: 6
[4]
  Semi-quantitative analysis of proteins binding to different plaque particles: Synuclein: 4
[5]
  Semi-quantitative analysis of proteins binding to different plaque particles: Abeta-42: 7

## Plasminogen
[1]
  Semi-quantitative analysis of proteins binding to different plaque particles: Tau: 13
[2]
  Semi-quantitative analysis of proteins binding to different plaque particles: Chl Large: 11
[3]
  Semi-quantitative analysis of proteins binding to different plaque particles: Chl small: 9
[4]
  Semi-quantitative analysis of proteins binding to different plaque particles: Synuclein: 7
[5]
  Semi-quantitative analysis of proteins binding to different plaque particles: Abeta-42: 7

## Complement C1s subcomponent
[1]
  Semi-quantitative analysis of proteins binding to different plaque particles: Tau: 2
[2]
  Semi-quantitative analysis of proteins binding to different plaque particles: Chl Large: 3
[3]
  Semi-quantitative analysis of proteins binding to different plaque particles: Chl small: 1
[4]
  Semi-quantitative analysis of proteins binding to different plaque particles: Synuclein: 1
[5]
  Semi-quantitative analysis of proteins binding to different plaque particles: Abeta-42: 0

## Hemoglobin subunit alpha
[1]
  Semi-quantitative analysis of proteins binding to different plaque particles: Tau: 5
[2]
  Semi-quantitative analysis of proteins binding to different plaque particles: Chl Large: 4
[3]
  Semi-quantitative analysis of proteins binding to different plaque particles: Chl small: 5
[4]
  Semi-quantitative analysis of proteins binding to different plaque particles: Synuclein: 5
[5]
  Semi-quantitative analysis of proteins binding to different plaque particles: Abeta-42: 2

## Platelet factor 4
[1]
  Semi-quantitative analysis of proteins binding to different plaque particles: Tau: 1
[2]
  Semi-quantitative analysis of proteins binding to different plaque particles: Chl Large: 1
[3]
  Semi-quantitative analysis of proteins binding to different plaque particles: Chl small: 0
[4]
  Semi-quantitative analysis of proteins binding to different plaque particles: Synuclein: 1
[5]
  Semi-quantitative analysis of proteins binding to different plaque particles: Abeta-42: 2

## Haptoglobin
[1]
  Semi-quantitative analysis of proteins binding to different plaque particles: Tau: 24
[2]
  Semi-quantitative analysis of proteins binding to different plaque particles: Chl Large: 27
[3]
  Semi-quantitative analysis of proteins binding to different plaque particles: Chl small: 29
[4]
  Semi-quantitative analysis of proteins binding to different plaque particles: Synuclein: 22
[5]
  Semi-quantitative analysis of proteins binding to different plaque particles: Abeta-42: 23

## Ig kappa chain V-III region POM
[1]
  Semi-quantitative analysis of proteins binding to different plaque particles: Tau: 2
[2]
  Semi-quantitative analysis of proteins binding to different plaque particles: Chl Large: 1
[3]
  Semi-quantitative analysis of proteins binding to different plaque particles: Chl small: 1
[4]
  Semi-quantitative analysis of proteins binding to different plaque particles: Synuclein: 0
[5]
  Semi-quantitative analysis of proteins binding to different plaque particles: Abeta-42: 0

## Vitamin K-dependent protein S
[1]
  Semi-quantitative analysis of proteins binding to different plaque particles: Tau: 0
[2]
  Semi-quantitative analysis of proteins binding to different plaque particles: Chl Large: 0
[3]
  Semi-quantitative analysis of proteins binding to different plaque particles: Chl small: 1
[4]
  Semi-quantitative analysis of proteins binding to different plaque particles: Synuclein: 0
[5]
  Semi-quantitative analysis of proteins binding to different plaque particles: Abeta-42: 0

## Ig lambda-2 chain C regions
[1]
  Semi-quantitative analysis of proteins binding to different plaque particles: Tau: 10
[2]
  Semi-quantitative analysis of proteins binding to different plaque particles: Chl Large: 5
[3]
  Semi-quantitative analysis of proteins binding to different plaque particles: Chl small: 7
[4]
  Semi-quantitative analysis of proteins binding to different plaque particles: Synuclein: 8
[5]
  Semi-quantitative analysis of proteins binding to different plaque particles: Abeta-42: 9

## Vitronectin
[1]
  Semi-quantitative analysis of proteins binding to different plaque particles: Tau: 4
[2]
  Semi-quantitative analysis of proteins binding to different plaque particles: Chl Large: 4
[3]
  Semi-quantitative analysis of proteins binding to different plaque particles: Chl small: 2
[4]
  Semi-quantitative analysis of proteins binding to different plaque particles: Synuclein: 4
[5]
  Semi-quantitative analysis of proteins binding to different plaque particles: Abeta-42: 4

## Lysozyme C
[1]
  Semi-quantitative analysis of proteins binding to different plaque particles: Tau: 0
[2]
  Semi-quantitative analysis of proteins binding to different plaque particles: Chl Large: 0
[3]
  Semi-quantitative analysis of proteins binding to different plaque particles: Chl small: 0
[4]
  Semi-quantitative analysis of proteins binding to different plaque particles: Synuclein: 0
[5]
  Semi-quantitative analysis of proteins binding to different plaque particles: Abeta-42: 4
